Here are results for eight compounds from patent US6060471A, “Reduction of hair growth” (priority 1998, dated 2000).

The subject of assay [1] is flank organs of Golden Syrian hamsters (hair growth). Description: Golden Syrian hamster assay (flank organ hair mass). The following applies: for inhibition in vivo at 10 %: read-out: % Inhibition (hair mass). The format is in vivo. An excerpt:
Male intact Golden Syrian hamsters are considered acceptable models for human beard hair growth in that they display oval shaped flank organs, one on each side, each about 8 mm. in major diameter, which grow thick black and coarse hair similar to human beard hair. These organs produce hair in response to androgens in the hamster. To evaluate the effectiveness of a composition including an inhibitor of the hypusine biosynthetic pathway, the flank organs of each of a group of hamsters are depilated by applying a thioglycolate based chemical depilatory (Surgex) and/or shaved. To one organ of each animal 10 μl. of vehicle alone once a day is applied, while to the other organ of each animal an equal amount of vehicle containing an inhibitor of the hypusine biosynthetic pathway is applied. After thirteen applications (one application per day for five days a week), the flank organs are shaved and the amount of recovered hair (hair mass) from each is weighed. Percent-reduction of hair growth is calculated by subtracting the hair mass (mg) value of the test compound treated side from the hair mass value of the vehicle treated side; the delta value obtained is then divided by the hair mass value of the vehicle treated side, and the resultant number is multiplied by 100.
The above-described assay will be referred to herein as the "Golden Syrian hamster" assay.
This vehicle also was used in the testing described below.

The test system of assay [2] is 18 kD human hair follicle protein (eIF-5A). As to the kind of experiment: Incorporation of 3H-spermidine into 18 kD human hair follicle proteins. The format is cell-based. The following applies: inhibitor 0.2 mM, follicles cultured 48 hours, 3H-spermidine 6 hours; for % Reduction of 3H-spermidine incorporation: 2880 min, 200 µM. The procedure:
Human hair follicles derived from face lift procedures were isolated and placed in Williams E medium containing antibiotics, glutamine, insulin and hydrocortisone. Follicles were cultured for 48 hours at 37° C. in the presence of 1,6-diaminohexane (0.2 mM), 1,8-diaminooctane (0.2 mM), ciclopiroxolamine (0.2 mM) or hydralazine (0.2 mM). Control follicles were maintained in Williams E without any inhibitors present. At the end of the 48 hour period, ^3 H-spermidine […] was added to the culture for 6 hours. The hair follicles were washed in phosphate buffered saline to remove nonincorporated ^3 H-spermidine, and the follicles were homogenized in a buffer, pH 7.4, containing Tris (50 mM) and sucrose (0.5 mM). Hair follicle protein was applied to a 10% polyacrylamide gel. After the proteins were separated on the gel using a constant voltage (125 V), they were stained with coomassie blue. […] The protein bands were cutout of the gel and solubilized with BTS-450 (Beckman). The liquid scintillation fluid Econoscint (12 mL) was added to each sample, which was analyzed for ^3 H-spermidine incorporation by scintillation spectrometry.

Where [3] appears, read: Mesocricetus auratus, Table I, dose 10%, topical, 13 applications, pH per compound 6.0-8.5.
[4] abbreviates: Table I, dose 10%, topical, 13 applications, pH per compound 6.0-8.5.

Where two headings read alike, the source gives them in different places.

As for `NCCCCCCCCCN` [1,9-Diaminononane, 1,9-diaminononane], the inhibition in vivo at 10 % in assay [1] (setting [3]) was 50 ± 13%. In assay [1] (setting [4]), the “Hair Mass, Treated” value is 1.27 ± .56 mq.

On to `NCCCCCN` [Cadaverine, cadaverine], for which, in assay [1] (setting [3]), the inhibition in vivo at 10 % came out at 43 ± 4%. In addition, the “Hair Mass, Treated” value in assay [1] (setting [4]) is on record as 1.91 ± .15 mq.

In the case of `NCCCCCCCCN` [1,8-Diaminooctane, 1,8-diaminooctane], the “Incorporation of 3H-spermidine” value in assay [2] was less than 1.0 pmol/mg protein. Besides, the results for the “% Reduction of 3H-spermidine incorporation” value (“% Reduction” for short) in assay [2] and in assay [2] (listed as 1,8-diaminooctane) were 100% and 47-100%, respectively. This compound also came in with an inhibition in vivo at 2 % in assay [1] (Mesocricetus auratus, topical, Table II, dose 2%, pH 9.0) of 24 ± 8%. In assay [1] (Mesocricetus auratus, topical, Table II, dose 5%, pH 9.0), this compound gave an inhibition in vivo at 5 % of 48 ± 10%. Moreover, the inhibition in vivo at 10 % was determined as 74 ± 6% in assay [1] (Mesocricetus auratus, topical, Table II, dose 10%, pH 8.0) and 74 ± 6% in assay [1] (setting [3]). Further, the “Hair Mass, Treated” value is listed as 0.70 ± .12 mq in assay [1] (setting [4]); 1.88 ± .25 mg in assay [1] (Table II, dose 2%, pH 9.0); 1.86 ± .37 mg in assay [1] (Table II, dose 5%, pH 9.0); 0.70 ± .12 mg in assay [1] (Table II, dose 10%, pH 8.0).

Turning to `NCCCCCCCN` [1,7-Diaminoheptane, 1,7-diaminoheptane], in assay [1] (setting [3]), the inhibition in vivo at 10 % came to 67 ± 4%. Also, the “Hair Mass, Treated” value in assay [1] (setting [4]) is recorded as 0.80 ± .11 mq.

In the case of `NNc1nncc2ccccc12` [Hydralazine, hydralazine], the inhibition at 200 µM in assay [2] (Homo sapiens, 48 h, read-out: % Reduction of 3H-spermidine incorporation) lay in the range of 47 to 100%. Further, in assay [2], the “Incorporation of 3H-spermidine” value came to 10.3 pmol/mg protein and the “% Reduction” value is 47%. The compound also gave an inhibition in vivo at 5 % in assay [1] (Mesocricetus auratus, topical, Table III, dose 5%, pH 5.0) of 33%. Besides, in assay [1] (Table III, dose 5%, pH 5.0), the “% Inhibition (hair mass)” value is reported as 33 ± 7% and the “Hair Mass, Treated” value is 1.38 ± .14 mg.

On to `Cc1cc(C2CCCCC2)n(O)c(=O)c1` [Ciclopiroxolamine, ciclopiroxolamine], for which, in assay [2], the “Incorporation of 3H-spermidine” value was less than 1.0 pmol/mg protein and the “% Reduction” value stood at 100%. Also, the “% Reduction” value in assay [2] (listed as ciclopiroxolamine) is recorded as 47-100%. The inhibition in vivo at 10 % in assay [1] (Mesocricetus auratus, topical, Table III, dose 10%, pH 9.0) was 44%. For the same compound, in assay [1] (Table III, dose 10%, pH 9.0), the “% Inhibition (hair mass)” value was found to be 44 ± 17% and the “Hair Mass, Treated” value is reported as 0.92 ± .21 mg.

In the case of `NCCCCN(CCCN)Cc1ccccc1` [N^4 -Benzylspermidine, N^4 -benzyl-spermidine], the inhibition in vivo at 10 % in assay [1] (setting [3]) came out at 62 ± 4%. In assay [1] (setting [4]), the “Hair Mass, Treated” value is reported as 1.05 ± .12 mq.

On to `NCCCCCCN` [1,6-Diaminohexane, 1,6-diaminohexane], for which, in assay [2], the “Incorporation of 3H-spermidine” value is less than 1.0 pmol/mg protein and the “% Reduction” value was found to be 100%. The “% Reduction” value in assay [2] (listed as 1,6-diaminohexane) is 47-100%. Moreover, the inhibition in vivo at 10 % in assay [1] (Mesocricetus auratus, topical) was 51 ± 5%. Further, in assay [1] (setting [4]), the “Hair Mass, Treated” value is 1.50 ± .20 mq.
